Measurements published in US11702429B2, “mTORC modulators and uses thereof” (Aeovian Pharmaceuticals, Inc., priority 2019, dated 2023).
Like-named read-outs stand apart in the source and are kept apart here.

How the values were obtained:
mTORC2 = target: T1, mTORC2 (Homo sapiens, UniProt P42345+P62942); test: Inhibition assay for mTORC2: phosphorylation of pAkt at Ser473, AlphaLISA in PC3 cells; format: cell-based; conditions: for IC50: read-out: pIC50 mTORC2 (converted)
T1 construct: endogenous in cells; host or cells: PC3 cells (human prostate adenocarcinoma)
T1 sequence (P62942 2-108 limits assumed, other chains not shown): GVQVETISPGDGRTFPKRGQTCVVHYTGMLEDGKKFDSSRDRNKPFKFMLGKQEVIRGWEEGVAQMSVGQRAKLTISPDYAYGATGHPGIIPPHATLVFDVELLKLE

mTORC1 = target: T2, mTORC1 (Homo sapiens, UniProt P42345+P62942); test: Inhibition assay for mTORC1: phosphorylation of pS6K at Thr389, AlphaLISA in PC3 cells; format: cell-based; conditions: for IC50: read-out: pIC50 mTORC1 (converted)
T2 construct: endogenous in cells; host or cells: PC3 cells (human prostate adenocarcinoma)

[1] = PC3 cells, treated 24 hours, pAkt Ser473, AlphaLISA, C16 diastereomer mixtures not separated
[2] = PC3 cells, treated 24 hours, pS6K Thr389, AlphaLISA, C16 diastereomer mixtures not separated

| Structure (SMILES) | IC50 (mTORC2) [nM] | IC50 (mTORC1) [nM] | also measured |
| --- | --- | --- | --- |
| COCCOCCNC(=O)O[C@@H]1CC[C@@H](C[C@@H](C)[C@@H]2CC(=O)[C@H](C)/C=C(\C)[C@@H](O)[C@@H](OC)C(=O)[C@H](C)C[C@H](C)/C=C/C=C/C=C(\C)C(OC)C[C@@H]3CC[C@@H](C)[C@@](O)(O3)C(=O)C(=O)N3CCCCC3C(=O)O2)C[C@H]1OC (stereo partly shown) [Compound 346] | < 1000 | < 0.316 |  |
| CO[C@@H]1C[C@H](C[C@@H](C)[C@@H]2CC(=O)[C@H](C)/C=C(\C)[C@@H](O)[C@@H](OC)C(=O)[C@H](C)C[C@H](C)/C=C/C=C/C=C(\C)C(OC[C@@H](O)c3ccccc3)C[C@@H]3CC[C@@H](C)[C@@](O)(O3)C(=O)C(=O)N3CCCCC3C(=O)O2)CC[C@H]1O (stereo partly shown) [Compound 217] | 1000 to 10000 | < 0.316 |  |
| COC1C[C@@H]2CC[C@@H](C)[C@@](O)(O2)C(=O)C(=O)N2CCCCC2C(=O)O[C@H]([C@H](C)C[C@@H]2CC[C@@H](OC(=O)NCCN3CCCCC3)[C@H](OC)C2)CC(=O)[C@H](C)/C=C(\C)[C@@H](O)[C@@H](OC)C(=O)[C@H](C)C[C@H](C)/C=C/C=C/C=C/1C (stereo partly shown) [Compound 365] | < 1000 | < 0.316 |  |
| COC1C[C@@H]2CC[C@@H](C)[C@@](O)(O2)C(=O)C(=O)N2CCCCC2C(=O)O[C@H]([C@H](C)C[C@@H]2CC[C@@H](OC(=O)NCCCN(CCO)CCO)[C@H](OC)C2)CC(=O)[C@H](C)/C=C(\C)[C@@H](O)[C@@H](OC)C(=O)[C@H](C)C[C@H](C)/C=C/C=C/C=C/1C (stereo partly shown) [Compound 358] | < 1000 | < 0.316 |  |
| COC1C[C@@H]2CC[C@@H](C)[C@@](O)(O2)C(=O)C(=O)N2CCCCC2C(=O)O[C@H]([C@H](C)C[C@@H]2CC[C@@H](OC(=O)N(C)CCN3CCCCC3)[C@H](OC)C2)CC(=O)[C@H](C)/C=C(\C)[C@@H](O)[C@@H](OC)C(=O)[C@H](C)C[C@H](C)/C=C/C=C/C=C/1C (stereo partly shown) [Compound 318] | < 1000 | < 0.316 |  |
| CO[C@@H]1C[C@H](C[C@@H](C)[C@@H]2CC(=O)[C@H](C)/C=C(\C)[C@@H](O)[C@@H](OC)C(=O)[C@H](C)C[C@H](C)/C=C/C=C/C=C(\C)C(OCC(C)(C)O)C[C@@H]3CC[C@@H](C)[C@@](O)(O3)C(=O)C(=O)N3CCCCC3C(=O)O2)CC[C@H]1O (stereo partly shown) [Compound 216] | 1000 to 10000 | 0.316 to 3.16 |  |
| CO[C@@H]1C[C@H](C[C@@H](C)[C@@H]2CC(=O)[C@H](C)/C=C(\C)[C@@H](O)[C@@H](OC)C(=O)[C@H](C)C[C@H](C)/C=C/C=C/C=C(\C)C(OCc3ccccc3)C[C@@H]3CC[C@@H](C)[C@@](O)(O3)C(=O)C(=O)N3CCCCC3C(=O)O2)CC[C@H]1O (stereo partly shown) [Compound 205] | < 1000 | < 0.316 |  |
| COC1C[C@@H]2CC[C@@H](C)[C@@](O)(O2)C(=O)C(=O)N2CCCCC2C(=O)O[C@H]([C@H](C)C[C@@H]2CC[C@@H](OCCOCCOCCOCCOCCO)[C@H](OC)C2)CC(=O)[C@H](C)/C=C(\C)[C@@H](O)[C@@H](OC)C(=O)[C@H](C)C[C@H](C)/C=C/C=C/C=C/1C (stereo partly shown) [Compound 350] | < 1000 | < 0.316 |  |
| COC1C[C@@H]2CC[C@@H](C)[C@@](O)(O2)C(=O)C(=O)N2CCCCC2C(=O)O[C@H]([C@H](C)C[C@@H]2CC[C@@H](n3ncnn3)[C@H](OC)C2)CC(=O)[C@H](C)/C=C(\C)[C@@H](O)[C@@H](OC)C(=O)[C@H](C)C[C@H](C)/C=C/C=C/C=C/1C (stereo partly shown) [Compound 307] | < 1000 | < 0.316 |  |
| COC1C[C@@H]2CC[C@@H](C)[C@@](O)(O2)C(=O)C(=O)N2CCCCC2C(=O)O[C@H]([C@H](C)C[C@@H]2CC[C@@H](OCCCOCCO)[C@H](OC)C2)CC(=O)[C@H](C)/C=C(\C)[C@@H](O)[C@@H](OC)C(=O)[C@H](C)C[C@H](C)/C=C/C=C/C=C/1C (stereo partly shown) [Compound 352] |  |  | pIC50 mTORC2 (mTORC2; Rapamycin analogs substituted at C40, pAkt Ser473, PC3 cells, 24 hours treatment): C (greater than 6 as C); pIC50 mTORC1 (mTORC1; Rapamycin analogs substituted at C40, pS6K Thr389, PC3 cells, 24 hours treatment): A (pIC50 for mTORC1 of >9.5 as A) |
| COC1CC(CC(C)C2CC(=O)C(C)C=C(C)C(O)C(OC)C(=O)C(C)CC(C)C=CC=CC=C(C)C(OCCO)CC3CCC(C)C(O)(O3)C(=O)C(=O)N3CCCCC3C(=O)O2)CCC1OCCCN1CCOCC1C (mixture of isomers) [Compound 2] |  |  | pIC50 mTORC2 (mTORC2; [1]): A (PIC50 for mTORC2 of <5 as A); pIC50 mTORC1 (mTORC1; [2]): A (pIC50 for mTORC1 of >9.5 as A) |
| COC1CC2CCC(C)C(O)(O2)C(=O)C(=O)N2CCCCC2C(=O)OC(C(C)CC2CCC(O[Si](C)(C)C(C)(C)C)C(OC)C2)CC(=O)C(C)C=C(C)C(O)C(OC)C(=O)C(C)CC(C)C=CC=CC=C1C (stereo not shown) [Compound 302] | 1000 to 10000 | > 3.16 |  |
| COC1CC2CCC(C)C(O)(O2)C(=O)C(=O)N2CCCCC2C(=O)OC(C(C)CC2CCC(OCCCN3CCOC(C)C3)C(OC)C2)CC(=O)C(C)C=C(C)C(O)C(OC)C(=O)C(C)CC(C)C=CC=CC=C1C (stereo not shown) [Compound 310] | < 1000 | < 0.316 |  |
| COC1C[C@@H]2CC[C@@H](C)[C@@](O)(O2)C(=O)C(=O)N2CCCCC2C(=O)O[C@H]([C@H](C)C[C@@H]2CC[C@@H](OC(=O)NCCC3CC3)[C@H](OC)C2)CC(=O)[C@H](C)/C=C(\C)[C@@H](O)[C@@H](OC)C(=O)[C@H](C)C[C@H](C)/C=C/C=C/C=C/1C (stereo partly shown) [Compound 337] | < 1000 | < 0.316 |  |
| COC1C[C@@H]2CC[C@@H](C)[C@@](O)(O2)C(=O)C(=O)N2CCCCC2C(=O)O[C@H]([C@H](C)C[C@@H]2CC[C@@H](OCCCN3CCN(C)CC3)[C@H](OC)C2)CC(=O)[C@H](C)/C=C(\C)[C@@H](O)[C@@H](OC)C(=O)[C@H](C)C[C@H](C)/C=C/C=C/C=C/1C (stereo partly shown) [Compound 332] | < 1000 | < 0.316 |  |
| CO[C@@H]1C[C@H](C[C@@H](C)[C@@H]2CC(=O)[C@H](C)/C=C(\C)[C@@H](O)[C@@H](OC)C(=O)[C@H](C)C[C@H](C)/C=C/C=C/C=C(\C)C(OCCO)C[C@@H]3CC[C@@H](C)[C@@](O)(O3)C(=O)C(=O)N3CCCCC3C(=O)O2)CC[C@H]1OC(=O)NCCO (stereo partly shown) [Compound 64] |  |  | pIC50 mTORC2 (mTORC2; [1]): A (PIC50 for mTORC2 of <5 as A); pIC50 mTORC1 (mTORC1; [2]): B (8.5 to 9.5 as B) |
| COC1CC(CC(C)C2CC(=O)C(C)C=C(C)C(O)C(OC)C(=O)C(C)CC(C)C=CC=CC=C(C)C(OCCO)CC3CCC(C)C(O)(O3)C(=O)C(=O)N3CCCCC3C(=O)O2)CCC1OCCCN1CCOCC1C (mixture of isomers) [Compound 5] |  |  | IC50 (mTORC2; [1]): > 10000 nM; IC50 (mTORC1; [2]): < 0.316 nM |
| COC1C[C@@H]2CC[C@@H](C)[C@@](O)(O2)C(=O)C(=O)N2CCCCC2C(=O)O[C@H]([C@H](C)C[C@@H]2CC[C@@H](OCc3ccccc3)[C@H](OC)C2)CC(=O)[C@H](C)/C=C(\C)[C@@H](O)[C@@H](OC)C(=O)[C@H](C)C[C@H](C)/C=C/C=C/C=C/1C (stereo partly shown) [Compound 305] | < 1000 | < 0.316 |  |
| CO[C@@H]1C[C@H](C[C@@H](C)[C@@H]2CC(=O)[C@H](C)/C=C(\C)[C@@H](O)[C@@H](OC)C(=O)[C@H](C)C[C@H](C)/C=C/C=C/C=C(\C)C(O[C@H](CO)c3ccccc3)C[C@@H]3CC[C@@H](C)[C@@](O)(O3)C(=O)C(=O)N3CCCCC3C(=O)O2)CC[C@H]1O (stereo partly shown) [Compound 204] | < 1000 | < 0.316 |  |
| COCCCOC1CC2CCC(C)C(O)(O2)C(=O)C(=O)N2CCCCC2C(=O)OC(C(C)CC2CCC(OCCCO)C(OC)C2)CC(=O)C(C)C=C(C)C(O)C(OC)C(=O)C(C)CC(C)C=CC=CC=C1C (stereo not shown) [Compound 33] |  |  | pIC50 mTORC2 (mTORC2; [1]): B (5 to 6 as B); pIC50 mTORC1 (mTORC1; [2]): A (pIC50 for mTORC1 of >9.5 as A) |
